From patent US20080274892A1, “Novel Haloalkylsulfonanilide Derivative, Herbicide, and Method of Use Thereof” (priority 2005, published 2008)

How the values were obtained:
bulrush [1] = experiment: Test Example 2: herbicidal efficacy on rice paddy weeds post-emergence; format: in vivo, Scirpus juncoides; conditions: post-emergence, one leaf stage, 21 days after treatment
[2] = system: transplanted paddy rice plant and Bulrush; experiment: Test Example 5: selectivity between transplanted paddy rice plant and weeds; format: in vivo; conditions: (highest dosage with no phytotoxicity to paddy rice)/(lowest dosage with effective level 4 on Bulrush); rice 3000-100 g/ha, Bulrush 300-10 g/ha; 21 days
Procedure, shortened: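 Scoring ran 21 days after treatment in a hothouse on a 0–4 scale (4 = 90–100%, 3 = 70–89%, 2 = 40–69%, 1 = 1–39%, 0 = none) relative to untreated plants. Post-emergence bulrush received 10, 30, 100 and 300 g/ha active ingredient. Transplanted rice received 100, 300, 1000 and 3000 g/ha to assess crop injury.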

false pimpernel [3] = experiment: Test Example 1: herbicidal efficacy on rice paddy weeds pre-emergence; format: in vivo, Lindernia pyxidaria; conditions: 21 days
[4] = system: paddy rice plant (cultivar: Nihonbare); experiment: Test Example 3: phytotoxicity test for transplanted paddy rice plant; format: in vivo; conditions: transplanted rice, 21 days after treatment
Procedure, shortened: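 Clay loam soil was placed in a 75 cm^2 plastic pot and flooded to a water depth of 5 cm. Two Nihonbare paddy rice plants at the two-leaf stage were transplanted 1 cm deep and grown in a hot house. After treatment, pots stayed in the hot house for 21 days, and phytotoxicity was then graded against an untreated control.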

false pimpernel [5] = experiment: Test Example 2: herbicidal efficacy on rice paddy weeds post-emergence; format: in vivo, Lindernia pyxidaria; conditions: post-emergence, one leaf stage, 21 days after treatment
bulrush [6] = experiment: Test Example 4: low dosage test for rice paddy weeds; format: in vivo, Scirpus juncoides; conditions: 300 g/ha as an active ingredient; plants treated at the one leaf stage; 21 days after treatment; vs untreated control
Procedure, shortened: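 Compound applied as a formulation at 300 g/ha to one-leaf bulrush grown in flooded clay loam (5 cm water) in a hot house. After 21 days, growth inhibition versus untreated plants rated on a 0–4 scale, with 4 meaning 90–100%.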

barnyard glass = experiment: Test Example 2: herbicidal efficacy on rice paddy weeds post-emergence; format: in vivo, Echinochloa crus-galli; conditions: post-emergence, one leaf stage, 21 days after treatment
Procedure, shortened: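 Efficacy on paddy weeds was scored on a 0 to 4 growth-inhibition scale: 4 for 90%-100%, 3 for 70%-89%, 2 for 40%-69%, 1 for 1%-39% and 0 for 0%. Barnyard glass was grown in clay loam in 75 cm^2 pots under 5 cm of water in a hot house. It was compared with untreated pots 21 days after treatment.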

bulrush [7] = experiment: Test Example 1: herbicidal efficacy on rice paddy weeds pre-emergence; format: in vivo, Scirpus juncoides; conditions: 21 days
[8] = dosage 1000 g/ha, treated 5 days after transplantation

| Structure (SMILES) | Bulrush post (herbicidal efficacy grade) (bulrush [1]; dosage 1000 g/ha) | Selective Index [2] | False pimpernel pre (herbicidal efficacy grade) (false pimpernel [3]; dosage 1000 g/ha) | Phytotoxicity to paddy rice [4, 8] | False pimpernel post (herbicidal efficacy grade) (false pimpernel [5]; dosage 1000 g/ha) | Herbicide effect to Bulrush (bulrush [6]) | Burnyard grass post (herbicidal efficacy grade) (barnyard glass; dosage 1000 g/ha) | Bulrush pre (herbicidal efficacy grade) (bulrush [7]; dosage 1000 g/ha) | Bulrush post (herbicidal efficacy grade) (bulrush [1]; dosage 300 g/ha) | False pimpernel pre (herbicidal efficacy grade) (false pimpernel [3]; dosage 300 g/ha) | Phytotoxicity to paddy rice ([4]; dosage 300 g/ha) | False pimpernel post (herbicidal efficacy grade) (false pimpernel [5]; dosage 300 g/ha) | Burnyard grass post (herbicidal efficacy grade) (barnyard glass; dosage 300 g/ha) | Bulrush pre (herbicidal efficacy grade) (bulrush [7]; dosage 300 g/ha) |
| --- | --- | --- | --- | --- | --- | --- | --- | --- | --- | --- | --- | --- | --- | --- |
| CCCC1(C)CN(Cc2ccccc2N(C(=O)OCC)S(=O)(=O)C(F)(F)F)C(=O)O1 (racemic) [1-127] | 4 (90%-100% of herbicidal efficacy or phytotoxicity) | 30 | 4 (90%-100% of herbicidal efficacy or phytotoxicity) | 1 (1%-39% of herbicidal efficacy or phytotoxicity) | 4 (90%-100% of herbicidal efficacy or phytotoxicity) | 4 (90%-100% of herbicidal efficacy or phytotoxicity) | 4 (90%-100% of herbicidal efficacy or phytotoxicity) | 4 (90%-100% of herbicidal efficacy or phytotoxicity) | – | – | – | – | – | – |
| CC1(C)OC(=O)N(Cc2ccccc2NS(=O)(=O)C(F)(F)F)C1=O [Compound No. 1-187, 5,5-dimethyl-3-[2-(trifluoromethanesulfonylamino)benzyl]oxazolidine-2,4-dione] | 4 (90%-100% of herbicidal efficacy or phytotoxicity) | ≧10 | 4 (90%-100% of herbicidal efficacy or phytotoxicity) | 3 (70%-89% of herbicidal efficacy or phytotoxicity) | 4 (90%-100% of herbicidal efficacy or phytotoxicity) | 4 (90%-100% of herbicidal efficacy or phytotoxicity) | 4 (90%-100% of herbicidal efficacy or phytotoxicity) | 4 (90%-100% of herbicidal efficacy or phytotoxicity) | – | – | – | – | – | – |
| C=CCOC(=O)N(c1ccccc1CN1CC(C)(C)OC1=O)S(=O)(=O)C(F)(F)F [1-82] | 4 (90%-100% of herbicidal efficacy or phytotoxicity) | ≧30 | 4 (90%-100% of herbicidal efficacy or phytotoxicity) | 2 (40%-69% of herbicidal efficacy or phytotoxicity) | 4 (90%-100% of herbicidal efficacy or phytotoxicity) | 4 (90%-100% of herbicidal efficacy or phytotoxicity) | 4 (90%-100% of herbicidal efficacy or phytotoxicity) | 4 (90%-100% of herbicidal efficacy or phytotoxicity) | – | – | – | – | – | – |
| CC(C)COC(=O)N(c1ccccc1CN1CC2(CCCCC2)OC1=O)S(=O)(=O)C(F)(F)F [1-46] | 4 (90%-100% of herbicidal efficacy or phytotoxicity) | 10 | 4 (90%-100% of herbicidal efficacy or phytotoxicity) | 1 (1%-39% of herbicidal efficacy or phytotoxicity) | 4 (90%-100% of herbicidal efficacy or phytotoxicity) | 4 (90%-100% of herbicidal efficacy or phytotoxicity) | 4 (90%-100% of herbicidal efficacy or phytotoxicity) | 4 (90%-100% of herbicidal efficacy or phytotoxicity) | – | – | – | – | – | – |
| CC1(C(F)(F)F)CN(Cc2ccccc2NS(=O)(=O)C(F)(F)F)C(=O)O1 (centres unmarked) [1-135] | – | 3 | – | – | – | 3 (70%-89% of herbicidal efficacy or phytotoxicity) | – | – | 4 (90%-100% of herbicidal efficacy or phytotoxicity) | 4 (90%-100% of herbicidal efficacy or phytotoxicity) | 1 (1%-39% of herbicidal efficacy or phytotoxicity) | 4 (90%-100% of herbicidal efficacy or phytotoxicity) | 2 (40%-69% of herbicidal efficacy or phytotoxicity) | 4 (90%-100% of herbicidal efficacy or phytotoxicity) |
| CCC1(C(C)C)CN(Cc2ccccc2NS(=O)(=O)C(F)(F)F)C(=O)O1 (centres unmarked) [1-131] | 4 (90%-100% of herbicidal efficacy or phytotoxicity) | 10 | 4 (90%-100% of herbicidal efficacy or phytotoxicity) | 2 (40%-69% of herbicidal efficacy or phytotoxicity) | 4 (90%-100% of herbicidal efficacy or phytotoxicity) | 4 (90%-100% of herbicidal efficacy or phytotoxicity) | 4 (90%-100% of herbicidal efficacy or phytotoxicity) | 4 (90%-100% of herbicidal efficacy or phytotoxicity) | – | – | – | – | – | – |
| CCC(C)COC(=O)N(c1ccccc1CN1CC(C)(C)OC1=O)S(=O)(=O)C(F)(F)F (centres unmarked) [1-67] | 4 (90%-100% of herbicidal efficacy or phytotoxicity) | ≧30 | 4 (90%-100% of herbicidal efficacy or phytotoxicity) | 1 (1%-39% of herbicidal efficacy or phytotoxicity) | 4 (90%-100% of herbicidal efficacy or phytotoxicity) | 4 (90%-100% of herbicidal efficacy or phytotoxicity) | 4 (90%-100% of herbicidal efficacy or phytotoxicity) | 4 (90%-100% of herbicidal efficacy or phytotoxicity) | – | – | – | – | – | – |
| CC1(C)CN(Cc2ccccc2NS(=O)(=O)C(F)(F)F)C(=S)O1 [1-49] | 4 (90%-100% of herbicidal efficacy or phytotoxicity) | 10 | 4 (90%-100% of herbicidal efficacy or phytotoxicity) | 2 (40%-69% of herbicidal efficacy or phytotoxicity) | 4 (90%-100% of herbicidal efficacy or phytotoxicity) | 4 (90%-100% of herbicidal efficacy or phytotoxicity) | 4 (90%-100% of herbicidal efficacy or phytotoxicity) | 4 (90%-100% of herbicidal efficacy or phytotoxicity) | – | – | – | – | – | – |
| CCCOC(=O)N(c1ccccc1CN1CC(CC)(CC)OC1=O)S(=O)(=O)C(F)(F)F [1-98] | 4 (90%-100% of herbicidal efficacy or phytotoxicity) | 10 | 4 (90%-100% of herbicidal efficacy or phytotoxicity) | 1 (1%-39% of herbicidal efficacy or phytotoxicity) | 4 (90%-100% of herbicidal efficacy or phytotoxicity) | 4 (90%-100% of herbicidal efficacy or phytotoxicity) | 4 (90%-100% of herbicidal efficacy or phytotoxicity) | 4 (90%-100% of herbicidal efficacy or phytotoxicity) | – | – | – | – | – | – |
| CC(C)OC(=O)N(c1ccccc1CN1CC(C)(C2CC2)OC1=O)S(=O)(=O)C(F)(F)F (racemic) [1-118] | 4 (90%-100% of herbicidal efficacy or phytotoxicity) | 30 | 4 (90%-100% of herbicidal efficacy or phytotoxicity) | 1 (1%-39% of herbicidal efficacy or phytotoxicity) | 4 (90%-100% of herbicidal efficacy or phytotoxicity) | 4 (90%-100% of herbicidal efficacy or phytotoxicity) | 4 (90%-100% of herbicidal efficacy or phytotoxicity) | 4 (90%-100% of herbicidal efficacy or phytotoxicity) | – | – | – | – | – | – |
